Reference: publication PMC7168207, “Dibasic Derivatives of Phenylcarbamic Acid as Prospective Antibacterial Agents Interacting with Cytoplasmic Membrane” (Antibiotics, 2020)
Several values for one entry are separate records, joined by “and”; a condition that tells them apart may be missing. Equal entries are not always repeated.

Experiments:
S. aureus ATCC 29213 = assay: MIC, broth microdilution; format: cell-based, Staphylococcus aureus; details: Staphylococcus aureus, ATCC29213; SA = S. aureus ATCC 29213; read-out: MICs
Procedure: (§1) The modified broth microdilution method was used for in vitro evaluation of minimum inhibitory concentration. A small portion of bacterial colony cultivated overnight onto nutrient agar (Oxoid, Basingstoke, UK) with 5% bovine blood was suspended in sterile phosphate-buffered saline to get cell density 0.5 McFarland. This inoculum was diluted to reach the final concentration of bacterial cells 5 × 10^5 CFU/mL in the wells. […] For plates with staphylococci, cation adjusted Mueller–Hinton (CaMH) broth (Oxoid) was used; enterococci were cultivated in brain heart infusion (BHI, Oxoid). […] A drug-free control and a sterility control were included. Inoculated plates were incubated in aerobic atmosphere at 37 °C overnight. […] After evaluation of MICs, 10 µL of aliquots from the wells were put onto Mueller–Hinton agar. The agar plates were cultivated at 37 °C for 24 h. The minimum bactericidal concentration (MBC) was defined as the lowest concentration of the compound that killed 99.9% of the bacteria compared to the starting inoculum.

[1] = test system: methicillin-resistant S. aureus 63718; assay: MIC, broth microdilution; format: cell-based, Staphylococcus aureus; details: Staphylococcus aureus; MRSA1 = S. aureus 63718; read-out: MICs
Procedure: as §1

[2] = test system: methicillin-resistant S. aureus SA 3202; assay: MIC, broth microdilution; format: cell-based, Staphylococcus aureus; details: Staphylococcus aureus; MRSA3 = SA 3202; read-out: MICs
Procedure: as §1

[3] = test system: methicillin-resistant S. aureus SA 630; assay: MIC, broth microdilution; format: cell-based, Staphylococcus aureus; details: Staphylococcus aureus; MRSA2 = SA 630; read-out: MICs
Procedure: as §1

E. faecalis ATCC 29212 = assay: MIC, broth microdilution; format: cell-based, Enterococcus faecalis; details: Enterococcus faecalis, ATCC 29212 / ATCC 29213; EF = E. faecalis ATCC 29213
Procedure: as §1

[4] = test system: vancomycin-resistant enterococci VRE 342B; assay: MIC, broth microdilution; format: cell-based, Enterococcus faecalis; details: Enterococcus; VRE1 = VRE 342B; read-out: MICs
Procedure: as §1

[5] = test system: vancomycin-resistant enterococci VRE 368; assay: MIC, broth microdilution; format: cell-based, Enterococcus faecalis; details: Enterococcus; VRE2 = VRE 368; read-out: MICs
Procedure: as §1

[6] = test system: vancomycin-resistant enterococci VRE 725B; assay: MIC, broth microdilution; format: cell-based, Enterococcus faecalis; details: Enterococcus; VRE3 = VRE 725B; read-out: MICs
Procedure: as §1

[7] = test system: Candida albicans CCM 8261; assay: minimum fungistatic concentration, RPMI 1640; format: cell-based; details: CCM8261, CA = C albicans CCM 8261, 48 h
Procedure: Fungistatic activity was tested similarly in RPMI (Roswell Park Memorial Institute) 1640 medium (Sigma, Pool, UK). […] A growth control and sterility control were included. The colonies of C. albicans grown overnight on Sabourad dextrose agar were suspended in sterile phosphate-buffered saline (PBS) to get cell density 0.5 McFarland. The inoculum was diluted to get a final concentration of 10^3 CFU/mL in the wells. Plates were inoculated and cultivated at 37 °C for 48 h. The minimum fungistatic concentration was visually evaluated as the lowest concentration of a tested compound, which inhibited 100% of yeast growth. 5-Flucytosin (Sigma, UK) was used as a positive control.

[8] = test system: human monocytic leukemia THP-1 cells; assay: in vitro antiproliferative assay (WST-1); format: cell-based; details: Homo sapiens, THP-1, 24 h, THP-1 cells, WST-1, 24 h; read-out: Tox IC50
Procedure: The preliminary in vitro screening of the antiproliferative effect of the investigated compounds was performed using a Water Soluble Tetrazolium salts-1 (WST-1) assay kit and a human monocytic leukemia THP-1 cell line by means of the method described recently. The principle of the WST-1 assay kit is the […] mitochondrial dehydrogenases by antiproliferative compounds. The activity of this enzyme directly correlates with the number of metabolically active cells in the culture. The antiproliferative effect was evaluated as the IC50 value (the concentration of the compound causing 50% inhibition of cell proliferation).
Human monocytic leukemia THP-1 cells were used for in vitro antiproliferative assay. Cells were obtained from the European Collection of Cell Cultures (ECACC, Salisbury, UK) and routinely cultured in RPMI (Roswell Park Memorial Institute) 1640 medium supplemented with 10% fetal bovine serum, 2% L-glutamine, 1% penicillin, and streptomycin at 37 °C with 5% CO2. Cells were passaged at approximately one-week intervals. The antiproliferative activity of the compounds was determined using a Water Soluble Tetrazolium Salts-1 (WST-1, 2-(4-iodophenyl)-3-(4-nitrophenyl)-5-(2,4-disulfophenyl)-2H-tetrazolium) assay kit (Roche Diagnostics, Mannheim, Germany) according to the manufacturer’s instructions. The tested compounds were dissolved in DMSO and added in various compound concentrations to the cell suspension in the culture RPMI 1640 medium. The maximum concentration of DMSO in the assays never exceeded 0.1%. Subsequently, the cells were incubated at 37 °C with 5% CO2 for 24 h. For WST-1 assays, cells were seeded into 96-well plates (5 × 10^4 cells/well in 100 μL culture medium) in triplicate in serum-free RPMI 1640 medium, and measurements were taken 24 h after the treatment with the compounds. The median inhibition concentration values, IC50, were deduced through the production of a dose-response curve. All data were evaluated using GraphPad Prism 5.00 software (GraphPad Software, San Diego, CA, USA).

[9] = set-up: method as in PMID 30274224; details: isocratic RP-HPLC, extrapolated lipophilicity index; cited from earlier work
[10] = set-up: method as in PMID 30274224; details: cited from earlier work
[11] = set-up: method as in PMID 30274224; details: methanolic solutions, c = 8.0 × 10^−5 M; cited from earlier work

Compound	MIC (S. aureus ATCC 29213)	MIC [1]	MIC [2]	MIC [3]	MIC (E. faecalis ATCC 29212)	MIC [4]	MIC [5]	MIC [6]	MIC [7]	IC50 [8]	log kw [9]	γ (surface tension, relative surface activity) [10]	log ε2 (Ch-T) [11]
Nc1[nH]c(=O)ncc1F [5-FC, flucytosine, reference compound]	–	–	–	–	–	–	–	–	1 µg/mL and 7.75 µM	–	–	–	–
CC1(C)S[C@@H]2[C@H](NC(=O)[C@H](N)c3ccccc3)C(=O)N2[C@H]1C(=O)O [AMP, ampicillin, reference compound]	2 µg/mL and 5.72 µM	16 µg/mL and 45.8 µM	> 16 µg/mL and > 45.8 µM	> 16 µg/mL and > 45.8 µM	–	–	–	2 µg/mL and 5.72 µM	–	> 30 µM	–	–	–
CC[C@@]1(O)C(=O)OCc2c1cc1n(c2=O)Cc2cc3ccccc3nc2-1 [CMP, camptothecin, reference compound]	–	–	–	–	–	–	–	–	–	~0.2 µM	–	–	–
O=C(O)c1cn(C2CC2)c2cc(N3CCNCC3)c(F)cc2c1=O [CPX, ciprofloxacin, reference compound]	–	> 16 µg/mL	> 16 µg/mL	> 16 µg/mL	–	–	–	–	–	–	–	–	–

The next lines start with results.

MIC (S. aureus ATCC 29213)	MIC [1]	MIC [2]	MIC [3]	MIC (E. faecalis ATCC 29212)	MIC [4]	MIC [5]	MIC [6]	MIC [7]	Compound	IC50 [8]	log kw [9]	γ (surface tension, relative surface activity) [10]	log ε2 (Ch-T) [11]
> 256 µg/mL and > 427 µM	> 256 µg/mL and > 427 µM	> 256 µg/mL and > 427 µM	> 256 µg/mL and > 427 µM	> 256 µg/mL and > 427 µM	> 256 µg/mL and > 427 µM	> 256 µg/mL and > 427 µM	> 256 µg/mL and > 427 µM	> 128 µg/mL and > 213 µM	CCCCOc1ccccc1NC(=O)OC(CN(CCC)CCC)CN1CCCC1 (centres unmarked) [1a]	10.8 ± 1.11 µM	3.7688	0.06464 N/m	4.19
> 256 µg/mL and > 417 µM	> 256 µg/mL and > 417 µM	> 256 µg/mL and > 417 µM	> 256 µg/mL and > 417 µM	> 256 µg/mL and > 417 µM	> 256 µg/mL and > 417 µM	> 256 µg/mL and > 417 µM	> 256 µg/mL and > 417 µM	> 128 µg/mL and > 208 µM	CCCCCOc1ccccc1NC(=O)OC(CN(CCC)CCC)CN1CCCC1 (centres unmarked) [1b]	12.5 ± 1.22 µM	4.0454	0.06366 N/m	4.05
> 256 µg/mL and > 407 µM	> 256 µg/mL and > 407 µM	> 256 µg/mL and > 407 µM	> 256 µg/mL and > 407 µM	> 256 µg/mL and > 407 µM	> 256 µg/mL and > 407 µM	> 256 µg/mL and > 407 µM	> 256 µg/mL and > 407 µM	> 128 µg/mL and > 203 µM	CCCCCCOc1ccccc1NC(=O)OC(CN(CCC)CCC)CN1CCCC1 (centres unmarked) [1c]	15.4 ± 0.22 µM	4.6049	0.06222 N/m	4.52
> 256 µg/mL and > 398 µM	> 256 µg/mL and > 398 µM	> 256 µg/mL and > 398 µM	> 256 µg/mL and > 398 µM	> 256 µg/mL and > 398 µM	> 256 µg/mL and > 398 µM	> 256 µg/mL and > 398 µM	> 256 µg/mL and > 398 µM	> 128 µg/mL and 199 µM	CCCCCCCOc1ccccc1NC(=O)OC(CN(CCC)CCC)CN1CCCC1 (centres unmarked) [1d]	16.3 ± 0.7 µM	4.9487	0.05985 N/m	4.08
64 µg/mL and 129 µM	64 µg/mL and 129 µM	64 µg/mL and 129 µM	64 µg/mL and 129 µM	128 µg/mL and 259 µM	32 µg/mL and 65.1 µM	64 µg/mL and 129 µM	32 µg/mL and 65.1 µM	> 128 µg/mL and > 259 µM	CCCCOc1cccc(NC(=O)OC(CN(CCC)CCC)CN2CCCC2)c1 (centres unmarked) [1e]	4.2 ± 0.79 µM	4.0258	0.06316 N/m	4.24
> 256 µg/mL and > 407 µM	> 256 µg/mL and > 407 µM	> 256 µg/mL and > 407 µM	> 256 µg/mL and > 407 µM	> 256 µg/mL and > 407 µM	> 256 µg/mL and > 407 µM	> 256 µg/mL and > 407 µM	> 256 µg/mL and > 407 µM	> 128 µg/mL and > 203 µM	CCCCOc1ccccc1NC(=O)OC(CN(CCC)CCC)CN1CCCCCC1 (centres unmarked) [1i]	23.1 ± 0.95 µM	4.4679	0.06302 N/m	4.08
> 256 µg/mL and > 398 µM	> 256 µg/mL and > 398 µM	> 256 µg/mL and > 398 µM	> 256 µg/mL and > 398 µM	> 256 µg/mL and > 398 µM	> 256 µg/mL and > 398 µM	> 256 µg/mL and > 398 µM	> 256 µg/mL and > 398 µM	> 128 µg/mL and > 199 µM	CCCCCOc1ccccc1NC(=O)OC(CN(CCC)CCC)CN1CCCCCC1 (centres unmarked) [1j]	26.4 ± 1.91 µM	4.8466	0.06206 N/m	4.22
> 256 µg/mL and > 390 µM	> 256 µg/mL and > 390 µM	> 256 µg/mL and > 390 µM	> 256 µg/mL and > 390 µM	> 256 µg/mL and > 390 µM	> 256 µg/mL and > 390 µM	> 256 µg/mL and > 390 µM	> 256 µg/mL and > 390 µM	> 128 µg/mL and > 195 µM	CCCCCCOc1ccccc1NC(=O)OC(CN(CCC)CCC)CN1CCCCCC1 (centres unmarked) [1k]	31.2 ± 2.24 µM	5.2359	0.06065 N/m	4.10
> 256 µg/mL and > 382 µM	> 256 µg/mL and > 382 µM	> 256 µg/mL and > 382 µM	> 256 µg/mL and > 382 µM	> 256 µg/mL and > 382 µM	> 256 µg/mL and > 382 µM	> 256 µg/mL and > 382 µM	> 256 µg/mL and > 382 µM	> 128 µg/mL and > 191 µM	CCCCCCCOc1ccccc1NC(=O)OC(CN(CCC)CCC)CN1CCCCCC1 (centres unmarked) [1l]	29.75 ± 0.14 µM	5.8966	0.05853 N/m	4.14
